This is an account of results in patent US11090304B2 (Amgen Inc., priority 2018, dated 2021).

What is called IC50 is the midpoint of a concentration-inhibition curve.

SMILES strings stand for the structures. Where two headings read alike, the source gives them in different places.

For test [1], the target named is GDP-bound KRAS protein (aa 1-169), containing both G12C and C118A amino acid substitutions (Homo sapiens, UniProt P01116, C118A/G12C). The test can be described thus: Coupled nucleotide exchange assay (SOS-mediated, AlphaScreen). To be noted: 5 min compound pre-incubation. It is filed as biochemical. On the technique in general: Alpha assays give light when donor and acceptor beads are brought close together.

Test [2] concerns Phosphorylation of ERK1/2 in MIA PaCa-2 cells. Kind of test: Phospho-ERK1/2 MSD assay in MIA PaCa-2 cells. It is filed as cell-based. Conditions: read-out: p-ERK IC50 (2 h; MIA PaCa-2), 2 h compound treatment. Put shortly: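 IC50 comes from a 4-parameter logistic fit of MSD phospho-ERK1/2 signal in lysates. Before lysis, MIA PaCa-2 or A549 cells were exposed to titrated compound for 2 or 4 h at 37 °C, followed by a 10 min 10 ng/mL EGF stimulus.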

GDP-bound KRAS protein (aa 1-169), containing both G12C and C118A amino acid substitutions, sequence (P01116 1-169 isoform P01116-2 G12C/C118A): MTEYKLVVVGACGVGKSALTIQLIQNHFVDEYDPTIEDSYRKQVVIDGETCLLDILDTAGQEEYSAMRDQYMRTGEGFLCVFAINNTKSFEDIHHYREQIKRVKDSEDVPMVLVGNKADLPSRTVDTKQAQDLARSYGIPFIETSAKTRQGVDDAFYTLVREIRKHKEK

In the case of `C=CC(=O)N1CCN(c2nc(=O)n(-c3c(C)ccnc3C(C)C)c3nc(-c4ccccc4F)c(C)cc23)[C@@H](C)C1` [Example 74-2, 7-(2-fluorophenyl)-6-methyl-1-(4-methyl-2-(2-propanyl)-3-pyridinyl)-4-((2S)-2-methyl-4-(2-propenoyl)-1-piperazinyl)pyrido[2,3-d]pyrimidin-2(1H)-one], the “Coupled exchange IC50 (5 min)” value in test [1] is on record as 0.228 | nda μM. Moreover, the IC50 in test [2] (Homo sapiens, MIA PaCa-2, 2 h) was found to be 300 nM.
The matching figures for `C=CC(=O)N1CCN(c2nc(=O)n(-c3ccccc3C(C)C)c3nc(-c4cc(N)ncc4Cl)c(Cl)cc23)[C@@H](C)C1` [Example 54-95, 7-(2-amino-5-chloro-4-pyridinyl)-6-chloro-4-((2S)-2-methyl-4-(2-propenoyl)-1-piperazinyl)-1-(2-(2-propanyl)phenyl)pyrido [2,3-d]pyrimidin-2(1H)-one]: 0.756 | nda μM and 821 nM.
The matching figures for `C=CC(=O)N1CCN(c2nc(=O)n(-c3c(O)cccc3C(C)C)c3nc(-c4ccccc4F)c(Cl)cc23)[C@@H](C)C1` (single isomer, unassigned) [Example 55-26-2]: 0.031 | nda μM and 124 nM.
`C=CC(=O)N1CCN(c2nc(=O)n(-c3ccccc3C(C)C)c3nc(-c4c(O)cccc4Cl)c(Cl)cc23)[C@@H](C)C1` [Example 54-79, 6-chloro-7-(2-chloro-6-hydroxy-phenyl)-4-((2S)-2-methyl-4-(2-propenoyl)-1-piperazinyl)-1-(2-(2-propanyl)phenyl)pyrido [2,3-d]pyrimidin-2(1H)-one]: in test [1], the “Coupled exchange IC50 (5 min)” value is 0.072 | nda μM. For the same compound, in test [2] (Homo sapiens, MIA PaCa-2, 2 h), the IC50 turned out to be 98 nM.
As to `C=CC(=O)N1CCN(c2nc(=O)n(-c3ncsc3C(C)C)c3nc(-c4c(O)cccc4F)c(Cl)cc23)[C@@H](C)C1` [Example 55-17, 6-chloro-7-(2-fluoro-6-hydroxyphenyl)-4-((2S)-2-methyl-4-(2-propenoyl)-1-piperazinyl)-1-(5-(2-propanyl)-1,3-thiazol-4-yl)pyrido[2,3-d]pyrimidin-2(1H)-one], the “Coupled exchange IC50 (5 min)” value in test [1] was 0.18 | nda μM. In addition, in test [2] (Homo sapiens, MIA PaCa-2, 2 h), the IC50 was 123 nM.
The corresponding values for `C=CC(=O)N1CCN(c2nc(=O)n(-c3c(C)ccnc3C(C)C)c3nc(-c4c(C)cccc4O)c(F)cc23)[C@@H](C)C1` (atropisomer, axis not shown; (M)) [Example 72-4, (M)-6-fluoro-7-(2-hydroxy-6-methylphenyl)-1-(4-methyl-2-(2-propanyl)-3-pyridinyl)-4-((2S)-2-methyl-4-(2-propenoyl)-1-piperazinyl)pyrido[2,3-d]pyrimidin-2(1H)-one] are 0.08 | nda μM and 115 nM.
The corresponding values for `C=CC(=O)N1CCN(c2nc(=O)n(-c3c(C)cccc3C3CC3)c3nc(-c4ccccc4F)c(Cl)cc23)[C@@H](C)C1` [Example 56-5, 6-chloro-1-(2-cyclopropyl-6-methylphenyl)-7-(2-fluorophenyl)-4-((2S)-2-methyl-4-(2-propenoyl)-1-piperazinyl)pyrido[2,3-d]pyrimidin-2(1H)-one] are 0.433 | nda μM and 740 nM.
The corresponding values for `C=CC(=O)N1CCN(c2nc(=O)n(-c3c(C)ccnc3C(C)C)c3nc(-c4cc(O)ccc4F)c(F)cc23)[C@@H](C)C1` [Example 58-5, 6-fluoro-7-(2-fluoro-5-hydroxyphenyl)-1-(4-methyl-2-(2-propanyl)-3-pyridinyl)-4-((2S)-2-methyl-4-(2-propenoyl)-1-piperazinyl)pyrido[2,3-d]pyrimidin-2(1H)-one] are 0.484 | nda μM and 1990 nM.
Regarding `C=CC(=O)N1CCN(c2nc(=O)n(-c3c(C)ccnc3C(C)C)c3nc(-c4cc(F)c(F)cc4O)c(F)cc23)[C@@H](C)C1` (atropisomer, axis not shown; (M)) [Example 72-2, (M)-7-(4,5-difluoro-2-hydroxyphenyl)-6-fluoro-1-(4-methyl-2-(2-propanyl)-3-pyridinyl)-4-((2S)-2-methyl-4-(2-propenoyl)-1-piperazinyl)pyrido[2,3-d]pyrimidin-2(1H)-one], in test [1], the “Coupled exchange IC50 (5 min)” value is 0.534 | nda μM. The IC50 in test [2] (Homo sapiens, MIA PaCa-2, 2 h) worked out at 595 nM.
The corresponding values for `C=CC(=O)N1CCN(c2nc(=O)n(-c3ccccc3C(C)C)c3nc(-c4ccc(F)cc4O)c(Cl)cc23)[C@@H](C)C1` [Example 54-77, 6-chloro-7-(4-fluoro-2-hydroxy-phenyl)-4-((2S)-2-methyl-4-(2-propenoyl)-1-piperazinyl)-1-(2-(2-propanyl)phenyl)pyrido [2,3-d]pyrimidin-2(1H)-one] are 0.218 | nda μM and 158 nM.
With `C=CC(=O)N1CCN(c2nc(=O)n(-c3c(C)ncnc3C3CC3)c3nc(-c4ccccc4F)c(Cl)cc23)[C@@H](C)C1` [Example 60-30, 6-chloro-1-(4-cyclopropyl-6-methyl-5-pyrimidinyl)-7-(2-fluorophenyl)-4-((2S)-2-methyl-4-(2-propenoyl)-1-piperazinyl)pyrido[2,3-d]pyrimidin-2(1H)-one], in test [1], the “Coupled exchange IC50 (5 min)” value is 0.218 | nda μM. The IC50 in test [2] (Homo sapiens, MIA PaCa-2, 2 h) amounted to 200 nM.
In the case of `C=CC(=O)N1CCN(c2nc(=O)n(-c3c(C(C)C)ccnc3C)c3nc(-c4ccccc4F)c(Cl)cc23)[C@@H](C)C1` (single isomer, unassigned) [Example 54-18-2], in test [1], the “Coupled exchange IC50 (5 min)” value was 0.729 | nda μM. Moreover, in test [2], the IC50 stood at 643 nM.
Turning to `C=CC(=O)N1CCN(c2nc(=O)n(-c3c(C)ccnc3C(C)C)c3nc(-c4cc(C)ccc4F)c(Cl)cc23)[C@@H](C)C1` (atropisomer, axis not shown; (M)) [Example 73-3, (M)-6-chloro-7-(2-fluoro-5-methylphenyl)-1-(4-methyl-2-(2-propanyl)-3-pyridinyl)-4-((2S)-2-methyl-4-(2-propenoyl)-1-piperazinyl)pyrido[2,3-d]pyrimidin-2(1H)-one], the “Coupled exchange IC50 (5 min)” value in test [1] is recorded as 0.031 | nda μM. Also, in test [2] (Homo sapiens, MIA PaCa-2, 2 h), the half-inhibitory concentration (IC50) turned out to be 40 nM.
The matching figures for `C=CC(=O)N1CCN(c2nc(=O)n(-c3c(CO)cccc3C(C)C)c3nc(-c4ccccc4F)c(Cl)cc23)[C@@H](C)C1` (single isomer, unassigned) [Example 55-43-2]: 0.022 | nda μM and 32 nM.
The matching figures for `C=CC(=O)N1CCN(c2nc(=O)n(-c3c(C)ccnc3C(C)C)c3nc(-c4ccccc4F)c(Cl)cc23)[C@@H](CO)C1` (single isomer, unassigned) [Example 78-14]: 0.133 | nda μM and 81 nM.
The matching figures for `C=CC(=O)N1CCN(c2nc(=O)n(-c3c(C)cc(N(C)C)cc3C(C)C)c3nc(-c4ccccc4F)c(Cl)cc23)[C@@H](C)C1` [Example 55-16, 6-chloro-1-(4-(dimethylamino)-2-methyl-6-(2-propanyl)phenyl)-7-(2-fluorophenyl)-4-((2S)-2-methyl-4-(2-propenoyl)-1-piperazinyl)pyrido[2,3-d]pyrimidin-2(1H)-one]: 0.154 | nda μM and 199 nM.
